Measured values as given in paper PMC8164657, “Intraoperative visualization of nerves using a myelin protein-zero specific fluorescent tracer” (EJNMMI Research, 2021).
Converted amounts (≈) assume the structure as drawn. “And” between values parts separate entries of the source, which are not always exact repeats. Equal values may be shown once. Residues, ends and D or L forms follow the SMILES beside them. *: point of attachment. X1 = CC1(C)C(/C=C/C=C/C=C2/N(CCCCS(=O)(=O)O)c3ccc(S(=O)(=O)O)cc3C2(C)C)=[N+](CCCCCC(=O)NCCN2C(=O)CC(*)C2=O)c2ccc(S(=O)(=O)[O-])cc21; Cy5 = far-red cyanine dye Cy5 on Cys

T1: P0 (P0-expressing RT4 D6P2T cells) (Rattus norvegicus, UniProt P06907)
T1 construct: was performed using P0-expressing RT4 D6P2T cells; host or cells: RT4 D6P2T Schwannoma cells
T1 sequence (P06907 30-248): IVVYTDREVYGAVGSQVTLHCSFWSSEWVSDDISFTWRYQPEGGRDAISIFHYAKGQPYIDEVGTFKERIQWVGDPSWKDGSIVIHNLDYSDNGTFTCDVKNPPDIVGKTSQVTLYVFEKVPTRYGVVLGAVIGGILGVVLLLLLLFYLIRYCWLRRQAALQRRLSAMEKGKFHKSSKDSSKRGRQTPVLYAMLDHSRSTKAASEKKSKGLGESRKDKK

T2: Myelin protein zero (P0) (Rattus norvegicus, UniProt P06907)
T2 chain: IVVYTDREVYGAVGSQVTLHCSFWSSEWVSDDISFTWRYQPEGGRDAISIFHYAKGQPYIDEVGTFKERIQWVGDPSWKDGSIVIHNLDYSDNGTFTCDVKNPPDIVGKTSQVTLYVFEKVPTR


Legend:
[1] = Stability at different temperatures; settings: after 4 hr at -20 °C, PBS, 10–0.6 µM, relative to t=0, n = 6
Protocol: A stock solution of either non-functionalized Cy5 or Cy5-P0101-125 (10 µM in PBS) was diluted
1:1 in PBS to create a concentration range between 10 –0.6 µM. The absorbance and
fluorescence intensities of each sample were measured (t=0 h) prior to storing the samples
at different temperatures (i.e., -20, 0, 20 and 37 °C). After t = 4 h, the absorbance and
fluorescence intensities of each sample was measured. The relative intensities (compared to
t=0) of each concentration were averaged to obtain n = 6 per temperature setting.

[2] = ref Spa et al (2); cited from earlier work
Stability in serum = settings: 24 h at 37 °C, % stable
[3] = set-up: method as in 2 sources, one per row (each row's own in cited_ref): ref Spa et al (2) ||| ref (2) (a number printed in a supplementary file, which may have a reference list of its own: not looked up in the article's list); settings: cited from earlier work
Solubility in H2O = format: physicochemical; settings: water; saturated solution in H2O at r.t., centrifugation, absorption of supernatant (UV/Vis)
[4] = target: T1, P0 (P0-expressing RT4 D6P2T cells); test: Flow cytometric saturation binding (KD); settings: saturation binding 0–2000 nM, flow cytometry APC-A channel, triplicate, repeated at least three times
Protocol: Analysis of the binding affinity (KD) of Cy5-P0_1–25, Cy5-P0_41–65, Cy5-P0_61–85, Cy5-P0_81–105, Cy5-P0_95–120 and Cy5-P0_101–125 for P0 was performed using P0-expressing RT4 D6P2T cells and a previously described flow cytometric method. For saturation, binding experiments were performed for each of the fluorescent peptides in a concentration range of 0–2000 nM. All measurements were taken in triplicate, and experiments were repeated at least three times per tracer. Fluorescence was measured using a FACSCanto II flow cytometry device (BD Biosciences) in the APC-A channel. The normalized geometric means were fitted with equations in the GraphPad Prism 5 software. A fluorescence-linked immunoabsorbent assay (FLISA) that was used to confirm the specificity of Cy5-P0_101–125 for P0 is described in Additional file 1: Fluorescence-linked immunoabsorbent assay.

Myelin protein zero (P0) = target: T2, Myelin protein zero (P0); test: flow cytometry saturation binding (RT4 D6P2T cells)

| Molecule | solubility thermodynamic (Solubility in H2O) [µM] | Kd [4] [nM] | also measured |
| --- | --- | --- | --- |
| CCN1/C(=C/C=C/C=C/C2=[N+](CCCCCC(=O)O)c3ccc(S(=O)(=O)O)cc3C2(C)C)C(C)(C)c2cc(S(=O)(=O)[O-])ccc21 [Cy5] |  |  | remaining absorbance [1]: 66 ± 8%; remaining fluorescence [1]: 80 ± 10%; Serum protein binding [2]: 6% ± 5% and 6%; Stability in serum (Stability in serum): 98%; degradation when incubated with glutathione ([3]; ref (2)): 1%; Stability towards glutathione ([3]; ref Spa et al (2)): 99% |
| CC[C@H](C)[C@H](NC(=O)[C@H](C)NC(=O)[C@H](CC(=O)O)NC(=O)[C@H](CCCNC(=N)N)NC(=O)CNC(=O)CNC(=O)[C@H](CCC(=O)O)NC(=O)[C@@H]1CCCN1C(C)=O)C(=O)N[C@@H](CO)C(=O)N[C@H](C(=O)N[C@@H](Cc1ccccc1)C(=O)N[C@@H](Cc1c[nH]cn1)C(=O)N[C@@H](Cc1ccc(O)cc1)C(=O)N[C@@H](C)C(=O)N[C@@H](CCCCN)C(=O)NCC(=O)N[C@@H](CCC(N)=O)C(=O)N1CCC[C@H]1C(=O)N[C@@H](Cc1ccc(O)cc1)C(=O)N[C@H](C(=O)N[C@@H](CC(=O)O)C(=O)N[C@@H](CCC(=O)O)C(=O)N[C@H](C(=O)NCC(=O)N[C@H](C(=O)N[C@@H](CSC1CC(=O)N(CCNC(=O)CCCCC[N+]2=C(/C=C/C=C/C=C3/N(CCCCS(=O)(=O)O)c4ccc(S(=O)(=O)O)cc4C3(C)C)C(C)(C)c3cc(S(=O)(=O)[O-])ccc32)C1=O)C(N)=O)[C@@H](C)O)C(C)C)[C@@H](C)CC)[C@@H](C)CC (some centres unmarked) [Cy5-P0_41–65] (Ac-PEGGRDAISIFHYAKGQPYIDEVGTC(X1)-NH2) | 45 (≈ 169 µg/mL) | > 1000 |  |
| CC[C@H](C)[C@H](N)C(=O)N[C@H](C(=O)N[C@H](C(=O)N[C@@H](Cc1ccc(O)cc1)C(=O)N[C@H](C(=O)N[C@@H](CC(=O)O)C(=O)N[C@@H](CCCNC(=N)N)C(=O)N[C@@H](CCC(=O)O)C(=O)N[C@H](C(=O)N[C@@H](Cc1c[nH]cn1)C(=O)NCC(=O)N[C@@H](C)C(=O)N[C@H](C(=O)NCC(=O)N[C@@H](CO)C(=O)N[C@@H](CCCNC(=N)N)C(=O)N[C@H](C(=O)N[C@H](C(=O)N[C@@H](CC(C)C)C(=O)N[C@@H](Cc1c[nH]cn1)C(=O)N[C@@H](CSC1CC(=O)N(CCNC(=O)CCCCC[N+]2=C(/C=C/C=C/C=C3/N(CCCCS(=O)(=O)O)c4ccc(S(=O)(=O)O)cc4C3(C)C)C(C)(C)c3cc(S(=O)(=O)[O-])ccc32)C1=O)C(=O)N[C@@H](CO)C(=O)N[C@@H](Cc1ccccc1)C(=O)N[C@@H](Cc1c[nH]c2ccccc12)C(=O)N[C@@H](CO)C(N)=O)[C@@H](C)O)C(C)C)C(C)C)C(C)C)[C@@H](C)O)C(C)C)C(C)C (some centres unmarked) [Cy5-P0_1–25] (H-IVVYTDREVHGAVGSRVTLHC(X1)SFWS-NH2) | 12 (≈ 44.5 µg/mL) | > 1000 |  |
| CC[C@H](C)[C@H](NC(=O)[C@H](CCCNC(=N)N)NC(=O)[C@H](CCC(=O)O)NC(=O)[C@H](CCCCN)NC(=O)[C@H](Cc1ccccc1)NC(=O)[C@@H](NC(=O)CNC(=O)[C@@H](NC(=O)[C@H](CCC(=O)O)NC(=O)[C@H](CC(=O)O)NC(C)=O)C(C)C)[C@@H](C)O)C(=O)N[C@@H](CCC(N)=O)C(=O)N[C@@H](Cc1c[nH]c2ccccc12)C(=O)N[C@H](C(=O)NCC(=O)N[C@@H](CC(=O)O)C(=O)N1CCC[C@H]1C(=O)N[C@@H](CCCNC(=N)N)C(=O)N[C@@H](Cc1c[nH]c2ccccc12)C(=O)N[C@@H](CCCCN)C(=O)N[C@@H](CC(=O)O)C(=O)NCC(=O)N[C@@H](CO)C(=O)N[C@H](C(=O)N[C@H](C(=O)N[C@H](C(=O)N[C@@H](CSC1CC(=O)N(CCNC(=O)CCCCC[N+]2=C(/C=C/C=C/C=C3/N(CCCCS(=O)(=O)O)c4ccc(S(=O)(=O)O)cc4C3(C)C)C(C)(C)c3cc(S(=O)(=O)[O-])ccc32)C1=O)C(N)=O)[C@@H](C)CC)C(C)C)[C@@H](C)CC)C(C)C (some centres unmarked) [Cy5-P0_61–85] (Ac-DEVGTFKERIQWVGDPRWKDGSIVIC(X1)-NH2) | 6 (≈ 23.8 µg/mL) | > 1000 |  |
| CC[C@H](C)[C@H](NC(=O)[C@H](CC(=O)O)NC(=O)[C@@H]1CCCN1C(=O)[C@@H]1CCCN1C(=O)[C@H](CC(N)=O)NC(=O)[C@H](CCCCN)NC(=O)[C@@H](NC(=O)[C@H](CC(=O)O)NC(=O)[C@H](C)NC(=O)[C@@H](NC(=O)[C@H](Cc1ccccc1)NC(=O)[C@@H](NC(C)=O)[C@@H](C)O)[C@@H](C)O)C(C)C)C(=O)N[C@H](C(=O)NCC(=O)N[C@@H](CCCCN)C(=O)N[C@H](C(=O)N[C@@H](CO)C(=O)N[C@@H](CCC(N)=O)C(=O)N[C@H](C(=O)N[C@H](C(=O)N[C@@H](CC(C)C)C(=O)N[C@@H](Cc1ccc(O)cc1)C(=O)N[C@H](C(=O)N[C@@H](Cc1ccccc1)C(=O)N[C@@H](CCC(=O)O)C(=O)N[C@@H](CCCCN)C(=O)N[C@@H](CSC1CC(=O)N(CCNC(=O)CCCCC[N+]2=C(/C=C/C=C/C=C3/N(CCCCS(=O)(=O)O)c4ccc(S(=O)(=O)O)cc4C3(C)C)C(C)(C)c3cc(S(=O)(=O)[O-])ccc32)C1=O)C(N)=O)C(C)C)[C@@H](C)O)C(C)C)[C@@H](C)O)C(C)C (some centres unmarked) [Cy5-P0_95–120] (Ac-TFTADVKNPPDIVGKTSQVTLYVFEKC(X1)-NH2) | 150 (≈ 589 µg/mL) | > 1000 |  |
| CC[C@H](C)[C@H](NC(=O)[C@H](CO)NC(=O)CNC(C)=O)C(=O)N[C@H](C(=O)N[C@H](C(=O)N[C@@H](Cc1c[nH]cn1)C(=O)N[C@@H](CC(N)=O)C(=O)N[C@@H](CC(C)C)C(=O)N[C@@H](CC(=O)O)C(=O)N[C@@H](Cc1ccc(O)cc1)C(=O)N[C@@H](CO)C(=O)N[C@@H](CC(=O)O)C(=O)N[C@@H](CC(N)=O)C(=O)NCC(=O)N[C@H](C(=O)N[C@@H](Cc1ccccc1)C(=O)N[C@H](C(=O)N[C@@H](CSC1CC(=O)N(CCNC(=O)CCCCC[N+]2=C(/C=C/C=C/C=C3/N(CCCCS(=O)(=O)O)c4ccc(S(=O)(=O)O)cc4C3(C)C)C(C)(C)c3cc(S(=O)(=O)[O-])ccc32)C1=O)C(=O)N[C@@H](CC(=O)O)C(=O)N[C@H](C(=O)N[C@@H](CCCCN)C(=O)N[C@@H](CC(N)=O)C(=O)N1CCC[C@H]1C(=O)N1CCC[C@H]1C(=O)N[C@@H](CC(=O)O)C(N)=O)C(C)C)[C@@H](C)O)[C@@H](C)O)[C@@H](C)CC)C(C)C (some centres unmarked) [Cy5-P0_81–105] (Ac-GSIVIHNLDYSDNGTFTC(X1)DVKNPPD-NH2) | 68 (≈ 248 µg/mL) | > 1000 |  |
| Ac-KNPPDIVGKTSQVTLYVFEKVPTRYC(Cy5)-NH2 [Cy5-P0(101-125)] |  |  | Kd (Myelin protein zero (P0)): 105 nM |
